The experiment concerns the target T1, human kinase Mps-1 (Homo sapiens, UniProt P33981).
T1 construct: N-terminally GST-tagged human full length recombinant Mps-1 kinase; GST (N); purchased Invitrogen, Karslruhe, Germany PV4071
T1 sequence (P33981 1-857): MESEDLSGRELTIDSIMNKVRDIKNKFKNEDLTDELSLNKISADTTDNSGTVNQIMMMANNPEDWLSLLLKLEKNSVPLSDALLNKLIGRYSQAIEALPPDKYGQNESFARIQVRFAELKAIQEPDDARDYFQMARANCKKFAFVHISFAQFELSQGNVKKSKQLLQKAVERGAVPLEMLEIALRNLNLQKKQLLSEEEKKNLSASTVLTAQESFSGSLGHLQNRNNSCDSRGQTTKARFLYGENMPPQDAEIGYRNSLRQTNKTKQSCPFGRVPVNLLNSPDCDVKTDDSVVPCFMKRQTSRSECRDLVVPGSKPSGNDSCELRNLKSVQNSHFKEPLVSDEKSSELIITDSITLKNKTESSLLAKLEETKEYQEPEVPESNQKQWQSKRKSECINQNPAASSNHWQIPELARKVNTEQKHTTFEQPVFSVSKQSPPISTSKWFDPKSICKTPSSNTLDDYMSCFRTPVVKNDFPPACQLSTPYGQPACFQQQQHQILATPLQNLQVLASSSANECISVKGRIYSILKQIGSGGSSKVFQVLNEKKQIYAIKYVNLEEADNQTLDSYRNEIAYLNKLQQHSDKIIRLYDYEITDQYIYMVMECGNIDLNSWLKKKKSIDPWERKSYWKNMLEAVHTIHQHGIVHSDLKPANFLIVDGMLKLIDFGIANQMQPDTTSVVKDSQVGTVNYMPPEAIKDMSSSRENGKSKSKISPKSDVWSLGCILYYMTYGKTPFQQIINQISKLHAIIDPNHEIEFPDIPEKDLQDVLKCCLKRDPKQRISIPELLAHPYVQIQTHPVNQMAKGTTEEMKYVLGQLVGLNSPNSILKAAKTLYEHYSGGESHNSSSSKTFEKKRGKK
Put plainly: Mps-1 kinase assay (TR-FRET). It counts as biochemical. Conditions: N-terminally GST-tagged human full length recombinant Mps-1; 10 μM ATP; 1 μM peptide substrate; 60 min at 22° C. On the procedure: The human kinase Mps-1 phosphorylates a biotinylated substrate peptide. Detection of the phosphorylated product is achieved by time-resolved fluorescence resonance energy transfer (TR-FRET) from Europium-labelled anti-phospho-Serine/Threonine antibody as donor to streptavidin labelled with cross-linked allophycocyanin (SA-XLent) as acceptor. Compounds are tested for their inhibition of the kinase activity.
N-terminally GST-tagged human full length recombinant Mps-1 kinase (purchased from Invitrogen, Karslruhe, Germany, cat. no PV4071) was used. As substrate for the kinase reaction a biotinylated peptide of the amino-acid sequence […] (C-terminus in amide form, purchased from Biosynthan GmbH, Berlin) was used.
The concentration of Mps-1 in the assay was adjusted to the activity of the enzyme lot and was chosen appropriate to have the assay in the linear range, typical enzyme concentrations were in the range of about 1 nM (final conc. in the 5 μl assay volume).
The resulting mixture was incubated 1 h at 22° C. to allow the binding of the phosphorylated peptide to the anti-phospho(Ser/Thr)-Europium-antibody. Subsequently the amount of phosphorylated substrate was evaluated by measurement of the resonance energy transfer from the Europium-labelled anti-phospho(Ser/Thr) antibody to the Streptavidin-XLent.

With `CNC(=O)c1ccc(-c2cnc3c(NCCC(F)(F)F)cc(-c4ccc(C(=O)OC)c(C)c4)cn23)cc1C` [Example 140, Methyl 2-methyl-4-{3-[3-methyl-4-(methylcarbamoyl)phenyl]-8-[(3,3,3-trifluoropropyl)amino]imidazo[1,2-a]pyridin-6-yl}benzoate], the 50% inhibitory concentration (IC50) came to 36.1 nM.

For `Cc1cc(-c2cnc3c(NCCC(F)(F)F)cc(Oc4ccccc4)cn23)ccc1C(=O)NC1(C)CC1` [Example 58, 2-Methyl-N-(1-methylcyclopropyl)-4-{6-phenoxy-8-[(3,3,3-trifluoropropyl)amino]imidazo[1,2-a]pyridin-3-yl}benzamide], the IC50 amounted to 5.7 nM.

In the case of “N-cyclopropyl-4-{8-[(2,2-difluoroethyl)amino]-6-(2,5-difluorophenoxy)imidazo[1,2-a]pyridin-3-yl}-2-methylbenzamide [Example 166]”, the half-inhibitory concentration (IC50) is 4.6 nM.

In the case of `COc1cccc(Oc2cc(NCCC(F)(F)F)c3ncc(-c4ccc(C(=O)NC5(C#N)CC5)c(C)c4)n3c2)c1` [Example 53, N-(1-cyanocyclopropyl)-4-{6-(3-methoxyphenoxy)-8-[(3,3,3-trifluoropropyl)amino]imidazo[1,2-a]pyridin-3-yl}-2-methylbenzamide], the IC50 was determined as 19.5 nM.

On to `CNC(=O)c1ccc(-c2cnc3c(NCCC(F)(F)F)cc(-c4ccc(C(N)=O)c(C)c4)cn23)cc1C` [Example 160, 4-{6-(4-carbamoyl-3-methylphenyl)-8-[(3,3,3-trifluoropropyl)amino]imidazo[1,2-a]pyridin-3-yl}-N,2-dimethylbenzamide], for which the IC50 stood at 2.3 nM.

Consider `CCc1cc(NCCC(F)(F)F)c2ncc(-c3ccc(C(=O)NC4(C#N)CC4)c(C)c3)n2c1` [Example 103], for which the IC50 turned out to be 156 nM.

As for `COc1ccc(Oc2cc(NCC3CCOCC3)c3ncc(-c4ccc(C(=O)NC5CC5)c(C)c4)n3c2)cc1F` [Example 123, N-cyclopropyl-4-{6-(3-fluoro-4-methoxyphenoxy)-8-[(tetrahydro-2H-pyran-4-ylmethyl)amino]imidazo[1,2-a]pyridin-3-yl}-2-methylbenzamide], the IC50 is 0.8 nM.

On to `COc1ccc(Oc2cc(NCC(F)F)c3ncc(-c4ccc(C(=O)NC5CC5)c(C)c4)n3c2)cc1F` [Example 167, N-cyclopropyl-4-{8-[(2,2-difluoroethyl)amino]-6-(3-fluoro-4-methoxyphenoxy)imidazo[1,2-a]pyridin-3-yl}-2-methylbenzamide], for which the IC50 came out at 6.2 nM.

Take `Cc1cc(-c2cnc3c(NCCC(F)(F)F)cc(-c4ccncc4)cn23)ccc1C(=O)NC1(C)CC1` [Example 90]: the IC50 was found to be 15.9 nM.

With `Cc1cc(-c2cnc3c(NCCC(F)(F)F)cc(Oc4cncc(F)c4)cn23)ccc1C(=O)NC1CC1` [Example 177, N-cyclopropyl-4-{6-[(5-fluoropyridin-3-yl)oxy]-8-[(3,3,3-trifluoropropyl)amino]imidazo[1,2-a]pyridin-3-yl}-2-methylbenzamide], the IC50 came to 20.4 nM.

Consider `Cc1cc(-c2cnc3c(NCCC(F)(F)F)cc(Oc4ccc(O)cc4)cn23)ccc1C(=O)NC1CC1` [Example 110, N-cyclopropyl-4-{6-(4-hydroxyphenoxy)-8-[(3,3,3-trifluoropropyl)amino]imidazo[1,2-a]pyridin-3-yl}-2-methylbenzamide], for which the IC50 stood at 0.6 nM.

As to `Cc1cc(-c2cnc3c(NCCC(F)(F)F)cc(Oc4cccc(Cl)c4)cn23)ccc1C(=O)NC1(C)CC1` [Example 36, 4-{6-(3-chlorophenoxy)-8-[(3,3,3-trifluoropropyl)amino]imidazo[1,2-a]pyridin-3-yl}-2-methyl-N-(1-methylcyclopropyl)benzamide], the IC50 came out at 11.1 nM.

`Cc1cc(-c2cnc3c(NCCC(F)(F)F)cc(Oc4ccc(OC(F)(F)F)cc4)cn23)ccc1C(=O)NC1(C#N)CC1` [Example 65, N-(1-cyanocyclopropyl)-2-methyl-4-{6-[4-(trifluoromethoxy)phenoxy]-8-[(3,3,3-trifluoropropyl)amino]imidazo[1,2-a]pyridin-3-yl}benzamide]: the 50% inhibitory concentration (IC50) is 131 nM.

On to `C/C=C/c1cc(NCCC(F)(F)F)c2ncc(-c3ccc(C(=O)NC4CC4)c(C)c3)n2c1` [Example 111, N-cyclopropyl-2-methyl-4-{6-[(1E)-prop-1-en-1-yl]-8-[(3,3,3-trifluoropropyl)amino]imidazo[1,2-a]pyridin-3-yl}benzamide], for which the 50% inhibitory concentration (IC50) was 5.8 nM.

Take `CCc1cc(NCCC(F)(F)F)c2ncc(-c3ccc(C(=O)N[C@H]4C[C@@H]4F)c(C)c3)n2c1` (relative stereo) [Example 104, 4-{6-Ethyl-8-[(3,3,3-trifluoropropyl)amino]imidazo[1,2-a]pyridin-3-yl}-N-[rel-(1S,2S)-2-fluorocyclopropyl]-2-methylbenzamide]: the IC50 amounted to 65.3 nM.

As to `Cc1cc(-c2cnc3c(NCCC(F)(F)F)cc(Oc4cccc(F)c4)cn23)ccc1C(=O)N[C@H]1C[C@@H]1F` (relative stereo) [Example 12 (rac.-A), N-[rel-(1S,2S)-2-fluorocyclopropyl]-4-{6-(3-fluorophenoxy)-8-[(3,3,3-trifluoropropyl)amino]imidazo[1,2-a]pyridin-3-yl}-2-methylbenzamide], the half-maximal inhibitory concentration (IC50) turned out to be 1.1 nM.

In the case of `Cc1cc(-c2cnc3c(NCCC(F)(F)F)cc(Oc4ccc(OC(F)(F)F)c(F)c4)cn23)ccc1C(=O)NC1(C)CC1` [Example 85, 4-{6-[3-F luoro-4-(trifluoromethoxy)phenoxy]-8-[(3,3,3-trifluoropropyl)amino]imidazo[1,2-a]pyridin-3-yl}-2-methyl-N-(1-methylcyclopropyl)benzamide], the IC50 was found to be 199 nM.

Consider `Cc1cc(-c2cnc3c(NCCC(F)(F)F)cc(Oc4cccc(O)c4)cn23)ccc1C(=O)NC1CC1` [Example 136, N-cyclopropyl-4-{6-(3-hydroxyphenoxy)-8-[(3,3,3-trifluoropropyl)amino]imidazo[1,2-a]pyridin-3-yl}-2-methylbenzamide], for which the concentration for half-maximal inhibition (IC50) is 0.5 nM.

In the case of `Cc1cc(-c2cnc3c(NCCC(F)(F)F)cc(Oc4cccc(F)c4O)cn23)ccc1C(=O)NC1CC1` [Example 176, N-cyclopropyl-4-{6-(3-fluoro-2-hydroxyphenoxy)-8-[(3,3,3-trifluoropropyl)amino]imidazo[1,2-a]pyridin-3-yl}-2-methylbenzamide], the IC50 stood at 1.8 nM.

Take `Cc1cc(-c2cnc3c(NCCC(F)(F)F)cc(-c4ccc(C(=O)N[C@H]5C[C@@H]5F)c(C)c4)cn23)ccc1C(=O)NC1CC1` (relative stereo) [Example 152, 4-{3-[4-(cyclopropylcarbamoyl)-3-methylphenyl]-8-[(3,3,3-trifluoropropyl)amino]imidazo[1,2-a]pyridin-6-yl}-N-[rel-(1S,2S)-2-fluorocyclopropyl]-2-methylbenzamide]: the IC50 stood at 0.8 nM.

Take `CNC(=O)c1ccc(-c2cnc3c(NCCC(F)(F)F)cc(-c4ccncc4)cn23)cc1C` [Example 88, N,2-dimethyl-4-{6-(pyridin-4-yl)-8-[(3,3,3-trifluoropropyl)amino]imidazo[1,2-a]pyridin-3-yl}benzamide]: the half-inhibitory concentration (IC50) stood at 9.8 nM.

On to `Cc1ccc(F)cc1Oc1cc(NCCC(F)(F)F)c2ncc(-c3ccc(C(=O)N[C@@H]4C[C@H]4C)c(C)c3)n2c1` (relative stereo) [Example 61, Rel-4-{6-(5-fluoro-2-methylphenoxy)-8-[(3,3,3-trifluoropropyl)amino]imidazo[1,2-a]pyridin-3-yl}-2-methyl-N-[(1R,2R)-2-methylcyclopropyl]benzamide], for which the half-inhibitory concentration (IC50) is 4.9 nM.

Consider `Cc1ccc(F)cc1Oc1cc(NCCC(F)(F)F)c2ncc(-c3ccc(C(=O)NC4(C)CC4)c(C)c3)n2c1` [Example 27, 4-{6-(5-Fluoro-2-methylphenoxy)-8-[(3,3,3-trifluoropropyl)amino]imidazo[1,2-a]pyridin-3-yl}-2-methyl-N-(1-methylcyclopropyl)benzamide], for which the concentration for half-maximal inhibition (IC50) was found to be 4.2 nM.

For the compound `COc1ccc(Oc2cc(NCCC(F)(F)F)c3ncc(-c4ccc(C(=O)NC5CC5)c(C)c4)n3c2)c(F)c1` [Example 69, N-cyclopropyl-4-{6-(2-fluoro-4-methoxyphenoxy)-8-[(3,3,3-trifluoropropyl)amino]imidazo[1,2-a]pyridin-3-yl}-2-methylbenzamide], the half-maximal inhibitory concentration (IC50) amounted to 1 nM.

The record behind these values is patent US20140255392A1 (BAYER INTELLECTUAL PROPERTY GMBH, priority 2011, published 2014).
